Data set [1] deals with T1, human CCR5 (Homo sapiens, UniProt P51681).
T1 construct: expressed in transfected cells
Nature of the data set: Inhibition of [125I]-RANTES binding to CCR5/CHO cells (CCR5 antagonist activity). To be noted: 40 min, test compound 1 μM, [125I]-RANTES 100 pM, CCR5/CHO strains, room temperature, read-out: Binding Inhibitory Ratio (%). As to the method: Cloning of a CCR5 gene was conducted from human spleen cDNA by a PCR method. Using 0.5 ng of spleen cDNA (Toyobo Co., Ltd., QUICK-Clone cDNA) as a template, the PCR reaction was carried out in a DNA Thermal Cycler 480 (Perkin Elmer) using a TaKaRa EX Taq (Takara Shuzo Co., Ltd.) (reaction conditions: 30 cycles of treatments at 95° C. for 1 minute, at 60° C. for 1 minute, and at 75° C. for 5 minutes) by adding 25 pmol of primers, SEQ ID NO. 1 (sequence length: 34; sequence type: nucleic acid; number of chains: a single chain; topology: linear; sequence kind: other nucleic acid, synthetic DNA) described in Experimental Example (1) of WO 99/32100, and SEQ ID NO. 2 (sequence length: 34; sequence type: nucleic acid; number of chains: a single chain; topology: linear; sequence kind: other nucleic acid, synthetic DNA) described in Experimental Example (1) of WO 99/32100, respectively, which were prepared by referring to the base sequence of the CCR5 gene described by Samson et al. (Biochemistry 35 (11), 3362-3367 (1996)). The PCR products were subjected to agarose gel electrophoresis to collect DNA fragments of about 1.0 kb. Then, the CCR5 gene was cloned using an Original TA Cloning Kit (Funakoshi Co., Ltd.).
The plasmids obtained above were digested with restriction enzymes XbaI (Takara Shuzo Co., Ltd.) and BamHI (Takara Shuzo Co., Ltd.), and subjected to agarose gel electrophoresis to collect DNA fragments of about 1.0 kb. The DNA fragments and a plasmid pcDNA3.1 (Funakoshi Co., Ltd.) for expression in animal cells, which was previously digested with XbaI and BamHI, were mixed and ligated by DNA Ligation Kit Ver.2 (Takara Shuzo Co., Ltd.). Transformation of E. coli JM109 competent cells (Takara Shuzo Co., Ltd.) gave plasmid pCKR5.
CHO-K1 cells grown in a 750 ml tissue culture flask (Becton Dickinson) using Ham's F12 medium (Nihon Pharmaceutical Co., Ltd.) containing 10% fetal bovine serum (Lifetech Oriental) were collected from the flask by using 0.5 g/L trypsin-0.2 g/L EDTA (Lifetech Oriental). The cells were then washed with PBS (Lifetech Oriental), centrifuged (1000 rpm, 5 minutes), and suspended in PBS. Next, DNA was introduced into the cells using Gene Pulser (Bio-Rad Laboratories Inc.) under the following conditions. Namely, 8×10^6 cells and 10 μg of plasmid pCKR5 for expression of human CCR5 were added into a cuvette of a 0.4 cm-gap, and electroporation was carried out at an electric voltage of 0.25 kV and a capacitance of 960 μF. Subsequently, the cells were transferred into Ham's F12 medium containing 10% fetal bovine serum, and incubated for 24 hours. The cells were again collected, centrifuged, and then suspended in Ham's F12 medium containing 10% fetal bovine serum and Geneticin (Lifetech Oriental) at a concentration of 500 μg/ml. The suspension of cells was diluted to a concentration of 10^4 cells/ml, and inoculated on a 96-well plate (Becton Dickinson) to give Geneticin-resistant strains.
Subsequently, the Geneticin-resistant strains were cultured in the 96-well plate (Becton Dickinson), and then CCR5-expressing cells were selected from the resistant strains. Namely, an assay buffer (Ham's F12 medium containing 0.5% BSA, and 20 mM HEPES (Wako Pure Chemical Industries, Ltd., pH 7.2)) containing 200 pM [^125I]-RANTES (Amersham) as a ligand was added to each well and the binding reaction was carried out at room temperature for 40 minutes. Each well plate containing the cells was washed with ice-cooled PBS, and then to each well was added 1 M NaOH in an amount of 50 μl/well, which was stirred. The cells to which the ligand bound specifically, i.e., CCR5/CHO strains, were selected by measurement of radioactivity by γ-counter.
The CCR5/CHO strains were inoculated on a 96-well microplate at a concentration of 5×10^4 cells/well, respectively and were cultured for 24 hours. […]

Eight molecules from patent publication US20060160864A1, “Acrylamide derivative, process for producing the same, and use” (priority 2003, published 2006) can be followed below.

T1 sequence (P51681 whole entry): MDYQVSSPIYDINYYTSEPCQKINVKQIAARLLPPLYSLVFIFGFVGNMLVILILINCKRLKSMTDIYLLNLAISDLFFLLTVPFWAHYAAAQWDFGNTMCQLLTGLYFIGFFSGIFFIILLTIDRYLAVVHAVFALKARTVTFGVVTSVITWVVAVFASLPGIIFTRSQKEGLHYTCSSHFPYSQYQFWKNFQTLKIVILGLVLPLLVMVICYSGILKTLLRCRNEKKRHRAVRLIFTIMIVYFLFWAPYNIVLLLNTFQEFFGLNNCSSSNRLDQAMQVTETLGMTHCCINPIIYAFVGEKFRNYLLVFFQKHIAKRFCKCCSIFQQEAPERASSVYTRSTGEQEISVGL

`CCCCOCCOc1ccc(-c2ccc(N3CCC4(C3)OCCO4)c(/C=C(\C)C(=O)Nc3ccc([S@@+]([O-])Cc4cncn4CCC)cc3)c2)cc1` [Compound 37, (S)-(2E)-3-[4′-(2-butoxyethoxy)-4-(1,4-dioxa-7-azaspiro[4.4]non-7-yl)-1,1′-biphenyl-3-yl]-2-methyl-N-[4-[[(1-propyl-1H-imidazol-5-yl)methyl]sulfinyl]phenyl]acrylamide] came in with a melting point of 139.5 to 140.5 °C. With `CCCCOCCOc1ccc(-c2ccc(N3CCC(C(=O)O)C3)c(/C=C(\C)C(=O)Nc3ccc([S@@+]([O-])Cc4cncn4CCC)cc3)c2)cc1` (stereo partly drawn) [Compound 41, (Ss)-(2E)-3-[4′-(2-butoxyethoxy)-4-(3-carboxypyrrolidin-1-yl)-1,1′-biphenyl-3-yl]-2-methyl-N-[4-[[(1-propyl-1H-imidazol-5-yl)methyl]sulfinyl]phenyl]acrylamide], the melting point was in the range of 184 to 186 °C. The inhibition at 1 µM in data set [1] was 100%. `CCCCOCCOc1ccc(-c2ccc(N3CCC(C(=O)NC)C3)c(/C=C(\C)C(=O)Nc3ccc([S@@+]([O-])Cc4cncn4CCC)cc3)c2)cc1` (stereo partly drawn) [Compound 44, (Ss)-(2E)-3-[4′-(2-butoxyethoxy)-4-[3-(methylaminocarbonyl)pyrrolidin-1-yl]-1,1′-biphenyl-3-yl]-2-methyl-N-[4-[[(1-propyl-1H-imidazol-5-yl)methyl]sulfinyl]phenyl]acrylamide] gave a melting point of 127 to 128.5 °C. On to `CCCCOCCOc1ccc(-c2ccc(N3CCC(C(=O)N(C)C)C3)c(/C=C(\C)C(=O)Nc3ccc([S@@+]([O-])Cc4cncn4CCC)cc3)c2)cc1` (stereo partly drawn) [Compound 45, (Ss)-(2E)-3-[4′-(2-butoxyethoxy)-4-[3-(dimethylaminocarbonyl)pyrrolidin-1-yl]-1,1′-biphenyl-3-yl]-2-methyl-N-[4-[[(1-propyl-1H-imidazol-5-yl)methyl]sulfinyl]phenyl]acrylamide], for which the melting point is 151 to 152 °C.

Regarding `CCCCOCCOc1ccc(-c2cnc(N3CCC(COC(C)=O)C3)c(/C=C(\C)C(=O)Nc3ccc([S@@+]([O-])Cc4cncn4CCC)cc3)c2)cc1` (stereo partly drawn) [Compound 49, (Ss)-(2E)-3-[2-[3-(acetoxymethyl)pyrrolidin-1-yl]-5-[4-(2-butoxyethoxy)phenyl]pyridin-3-yl]-2-methyl-N-(4-[[(1-propyl-1H-imidazol-5-yl)methyl]sulfinyl]phenyl]acrylamide], in data set [1], the inhibition at 1 µM was determined as 100%. Regarding `CCCCOCCOc1ccc(-c2cnc(N3CCC(CO)C3)c(/C=C(\C)C(=O)Nc3ccc([S@@+]([O-])Cc4cncn4CCC)cc3)c2)cc1` (stereo partly drawn) [Compound 50, (Ss)-(2E)-3-[5-[4-(2-butoxyethoxy)phenyl]-2-[3-(hydroxymethyl)pyrrolidin-1-yl]pyridin-3-yl]-2-methyl-N-[4-[[(1-propyl-1H-imidazol-5-yl)methyl]sulfinyl]phenyl]acrylamide], the inhibition at 1 µM in data set [1] turned out to be 100%. Consider `CCCCOCCOc1ccc(-c2ccc(N3CCC(CC(=O)OCC)C3)c(/C=C(\C)C(=O)Nc3ccc([S@@+]([O-])Cc4cncn4CCC)cc3)c2)cc1` (stereo partly drawn) [Compound 61, (Ss)-(2E)-3-[4′-(2-butoxyethoxy)-4-[3-(2-ethoxy-2-oxoethyl)pyrrolidin-1-yl]-1,1′-biphenyl-3-yl]-2-methyl-N-(4-[[(1-propyl-1H-imidazol-5-yl)methyl]sulfinyl]phenyl]acrylamide], for which the inhibition at 1 µM in data set [1] was found to be 94%. The same measure, in the same setting: for `CCCCOCCOc1ccc(-c2ccc(N3CCC(CC(=O)O)C3)c(/C=C(\C)C(=O)Nc3ccc([S@@+]([O-])Cc4cncn4CCC)cc3)c2)cc1` (stereo partly drawn) [Compound 62, (Ss)-(2E)-3-[4′-(2-butoxyethoxy)-4-[3-(carboxymethyl)pyrrolidin-1-yl]-1,1′-biphenyl-3-yl]-2-methyl-N-[4-[[(1-propyl-1H-imidazol-5-yl)methyl]sulfinyl]phenyl]acrylamide] the value was 100%.

Broadly, the melting point is the temperature, or range, at which the solid turns liquid.
